Measurements from patent US10231958B2, “Methods and compositions for enhancing chemotherapy” (THE BOARD OF REGENTS OF THE UNIVERSITY OF TEXAS SYSTEM, priority 2015, dated 2019).
Entries after “also recorded” stand apart in the source; their conditions may differ.

Columns and labels:
[1] = test system: NFκB-responsive firefly luciferase construct in MDA-MB231 cells; assay: NFκB gene reporter assay; assay type: cell-based, human
Method: (§1) Prior to transfection, cells were plated in 96-well plates to 80-90% confluence (100 μL antibiotic free-medium) after 24 h. When used, siRNA were incubated by reverse transfection during cells seeding. […] A mixture of non-inducible firefly luciferase construct and constitutively expressing Renilla luciferase construct (40:1) were used as negative controls. Approximately 24 h post-transfection, the medium was changed and the cells were treated for 12 h with alkylating agents (with/out 6 h pre-treatments). At the end of this period, medium was changed to drug-free fresh medium (to minimize the effect of alkylating toxicity on promoters activity) and cells were kept for an additional 12 h.

[2] = test system: AP1-responsive firefly luciferase construct in MDA-MB231 cells; assay: AP-1 gene reporter assay; assay type: cell-based, human
Method: as §1

MEFs = assay: Gene expression microarray in MEFs; assay type: cell-based, mouse; conditions: 24 h
Method: For microarray, 7.5×10^6 Kc167 Drosophila cells or 5×10^6 wild-type MEFs were seeded in T-75 cell culture flask in complete growth medium one day before treatments. On the following day, the medium was replenished with fresh growth medium or medium consisting of MMS at 40 μg/mL. Cells were harvested and pelleted at different times post treatment (0, 1, 8, 24 and 72 h), washed using ice cold phosphate buffered saline (PBS) and the RNA was extracted using the RNeasy kit protocol (Qiagen). RNA integrity was assessed by denaturing formaldehyde agarose gel electrophoresis or by microanalysis (Agilent Bioanalyzer, Santa Clara, Calif.). Microarray service was provided by Expression Analysis Inc., Durham, N.C. Affymetrix GeneChip Drosophila Genome 2.0 Array was used for the experiment performed using Kc167 cells, and Affymetrix GeneChip Mouse Genome 430A 2.0 Array was used for experiment performed using MEFs. The microarray service provided by Expression Analysis Inc., included group comparison between experimental control and MMS treatment and time course analysis based on permutation analysis of differential expression (PADE). For statistical comparison, each experiment was performed in quadruplicate.

[3] = test system: MAPKs (ERK1/2, JNK1/2 and p38) and ATF2; assay: Western blot of MAPK phosphorylation; assay type: cell-based; conditions: 8 h
Method: Western blot. Protein lysates were prepared using RIPA buffer containing 5% sodium deoxycholate, 0.1% SDS, 0.1% Igepal in PBS with a cocktail of protease and phosphatase inhibitors (1 mM PMSF, 1 mM sodium orthovanadate, 1 mM NaF, and 30 μL/mL aprotinin (Sigma-Aldrich, USA)) and clarified by centrifugation. Protein concentration was determined using Bradford Protein Assay Reagent (Biorad, Hercules, Calif.). Equal amounts of protein were resolved using 8-12% SDS polyacrylamide gel, transferred onto nitrocellulose membranes (Hybond-ECL, GE Healthcare Lifesciences, Piscataway, N.J.) and detected using Lumiglo system (Cell Signaling Technology, Calif.) and x-ray films. Primary antibodies included COX-2 (#4842), NRF2 (D1C9), p-JNK1/2 (Thr183/Tyr185, #4671), p-p38 (Thr180/Tyr182, #9216), p-ERK1/2 (Thr202/Tyr204, #9101), BiP/GRP78 (C50B12), IRE1a (14C10), CHOP (L63F7) and PERK (D11A8) from Cell Signaling Technology; p-IRE1a (Ser724; NB100-2323) from Novus Biologicals; GCLC (Ab41463), beta-actin (ab8227) and ATF6 (Ab37149) from Abcam; p-PERK (Thr 981, sc-32577) and ATF3 (C19) were purchased from Santa Cruz. All primary antibodies were used at 1:1000 dilutions and secondary antibodies were 1:3000 in TBS-T with 5% BSA.

IL8, MMP1, MMP3 and PGE2 = assay: ELISA of inflammatory mediators in culture medium; assay type: cell-based, human
Method: Quantification of MMP1 and MMP3 content in culture medium was assessed using RayBio-MMP3 and RayBio-MMP1 Elisa Kit (RayBiotech, Inc); IL8 was analyzed by Human IL-8 Elisa kit (Pierce Biotechnology). The levels of prostaglandin E2 (PGE2) were determined using the Prostaglandin E2 EIA Kit Monoclonal (Cayman Chemical Company). Culture media were diluted to fit within the standard curves. For conditioned media (CM) preparation for invasion and in vitro angiogenesis experiments, 12-well plated cells were treated with MMS (or MMS plus inhibitors) for 8 h in the presence of 10% FBS, twice washed with HBSS, and incubated with 700 μL drug/serum-free fresh medium for additional 12 h. Thereafter, the conditioned fresh medium was collected and directly used for migration and invasion experiments in order to reduce freezing associated loss of activity.

[4] = test system: MDA-MB231 xenograft implants; assay: MDA-MB231 xenograft study; assay type: in vivo, mouse
Source text: The study was approved by the University of Texas Health Science Center at San Antonio Institutional Animal Care and Use Committee (IACUC) policy as outlined in protocol number 11024. The facility is operated in compliance with the Public Law 89-544 (Animal Welfare Act) and its amendments, Public Health Services Policy on Humane Care and Use of Laboratory Animals (PHS Policy) using the Guide for the Care and Use of Laboratory Animals (Guide) as the basis of operation. Selection of cyclophosphamide and sorafenib doses was based on previously published reports (Sun et al., 2010, J Int Med Res 38, 967-76; Wilhelm et al., 2004 Cancer Res 64, 7099-109). MDA-MB-231 cells were harvested by trypsinization, washed and re-suspended in serum-free medium. Thereafter, cells were mixed with matrigel (1:1), and approximately 5×10^6 cells were subcutaneously injected in the right flank of each mouse. When the average tumor volume reached about 100 mm^3, mice were randomized into groups of 8 animals each, and the following treatment protocol was implemented: Group 1 (control): 100 μL of saline (i.p.); Group 2: sorafenib (1 mg/kg; i.p.) for 9 days; Group 3: cyclophosphamide 0.1 g/kg on days 2, 4, 6 and 8; Group 4: Sorafenib+cyclophosphamide (combination of same above described regimens). All animals were sacrificed 5 days after the end of treatments (15th day of the treatment protocol). Body weight of mice was recorded weekly, and tumor size was measured thrice a week in two dimensions using a digital caliper. The tumor volume was calculated by the formula 0.5236 L1(L2)^2, where L1 is the long axis, and L2 is the short axis of the tumor. At the termination of the study, mice were euthanized; tumors were excised and a part was fixed in 10% phosphate-buffered formalin for H&E, Masson's staining and immunohistochemistry (IHC) analyses.

[5] = MDA-MB231, pre-incubation with inhibitor

COS(C)(=O)=O [MMS, methyl-methanesulfonate]
activation of NFκB luciferase reporter ([1]; alkylating agent alone): activated both NFκB and AP-1 luciferase reporter constructs
activation of AP-1 luciferase reporter ([2]; alkylating agent alone): activated both NFκB and AP-1 luciferase reporter constructs
up-regulation of CAT expression (MEFs): 2.7 fold
phosphorylation of MAPK ([3]; MDA-MB231 and MEF): increased phosphorylation of the three MAPK
production of IL-8, MMP-1 and MMP-3 (IL8, MMP1, MMP3 and PGE2; MDA-MB231 culture medium): enhances the production of MMP1, MMP3 and IL8
prostaglandin E2 (PGE2) in culture medium and COX-2 protein in lysates (IL8, MMP1, MMP3 and PGE2; human cancer cells, 12 h): increased levels of prostaglandin E2 (PGE2)

CNC(=O)c1cc(Oc2ccc(NC(=O)Nc3ccc(Cl)c(C(F)(F)F)c3)cc2)ccn1 [sorafenib, 4-[4-[[4-chloro-3-(trifluoromethyl)phenyl]carbamoylamino]phenoxy]-N-methyl-pyridine-2-carboxamide]
effect on MMS-induced activation of NFκB reporter [1, 5]: strong inhibitory effects on both promoters; also recorded: blocked NFκB and AP-1 promoter activation
effect on MMS-induced activation of AP-1 reporter [2, 5]: strong inhibitory effects on both promoters; also recorded: blocked NFκB and AP-1 promoter activation
effect on MMS-induced MAPK phosphorylation ([3]; MDA-MB231 cells): blocked both MMS-induced phosphorylation of ERK1/2 and JNK1/2 as well as basal ERK1/2
effect on MMS/alkylation-induced IL8, MMP1, MMP3 and PGE2 secretion and COX-2 (IL8, MMP1, MMP3 and PGE2; MDA-MB231, 12 h): exerted the strongest effect in blocking alkylation-induced IL8, COX-2/PGE2, MMP1 and 3
tumor growth, single agent ([4]; sorafenib 1 mg/kg i.p. 9 days, cyclophosphamide 0.1 g/kg days 2, 4, 6, 8): significantly decrease tumor growth
tumor growth, combination with cyclophosphamide ([4]; sorafenib 1 mg/kg i.p. plus cyclophosphamide 0.1 g/kg): synergize with cyclophosphamide
tumor volume at which growth was stabilized ([4]; sorafenib alone, 7 days of treatment): ~150 mm^3
effect on cyclophosphamide-induced angiogenic response ([4]; sorafenib combined with cyclophosphamide): significant inhibition of cyclophosphamide-induced angiogenic response; also recorded: blocked cyclophosphamide-induced vessels formation
